These results are taken from patent US20260234101A1, “COMPOUNDS, THEIR COMPOSITION AND THEIR USE AS NEMATICIDES” (priority 2023, published 2026).

In series [1] the test system is Root-knot nematodes (Meloidogyne spp), juveniles (J2). Description: Nematocidal activity against root-knot nematodes, 24 well bioassay plate, percent mortality. In kind it is in vivo. The note with it: 70-100 J2 juveniles per well, 22±2° C., 70±5% RH, dead/inactive counted at 24, 48, 72 and 96 hours, read-out: Rating (% Mortality). How it is done:
The compound to be tested (4 mg) was dissolved in 40 μl of DMSO to make 100,000 PPM concentration stock solution. The clear solution was obtained by vortexing. The nematode suspension (250 μl) having 70-100 juveniles (J2) of Root-knot nematodes Meloidogyne spp. pipetted out to each cell of 24 well bioassay plate. Sterile water (1 ml) was pipetted out in fresh 2.5 ml Eppendorf micro-centrifuge tubes. The desired concentration (500 ppm) of the compound was prepared by adding stock solution in 2.5 ml Eppendorf micro-centrifuge tubes. For each treatment 4 replications were maintained. The bioassay plates were incubated at 22±2° C. and 70±5% RH in humidity chambers.

A short description of series [2]: Stability studies: storage at room temperature and accelerated storage condition, purity estimated by HPLC. In kind it is physicochemical. The note with it: properly packed material; for purity estimated by HPLC, Day 14, Condition 54° C. ± 2° C. / purity estimated by HPLC, Day Zero, Condition 54° C. ± 2° C.: 54° C. ± 2° C. (accelerated storage). An excerpt: The compounds of present invention were stored under conditions as shown in below table [room temperature and on accelerated storage condition (ATS)] and the purity was estimated by HPLC. The properly packed material was subjected to the conditions mentioned in the table below.

For `N=C(N)NCCC[C@H](/N=C/c1ccccc1C(F)(F)F)C(=O)O` [Example 1, (E)-N^2-{[2-(trifluoromethyl)phenyl]methylidene}-L-arginine], the mortality at 500 ppm in series [1] is 70 to 100%.

Consider `N=C(N)NCCC[C@H](/N=C/c1cccc(C(F)(F)F)c1)C(=O)O` [Example 2, (E)-N^2-{[3-(trifluoromethyl)phenyl]methylidene}-L-arginine], for which, in series [2], the “purity estimated by HPLC, Day 14, Condition 25° C. ± 2° C.” value is 99.70; the “purity estimated by HPLC, Day 14, Condition 54° C. ± 2° C.” value is 99.55; the “purity estimated by HPLC, Day Zero, Condition 25° C. ± 2° C.” value is on record as 99.71; the “purity estimated by HPLC, Day Zero, Condition 54° C. ± 2° C.” value is on record as 99.60. Further, the mortality at 500 ppm in series [1] was in the range of 70 to 100%.

For the compound `N=C(N)NCCC[C@H](/N=C/c1ccc(Cl)cc1O)C(=O)O` [Example 3, (E)-N^2-[(4-chloro-2-hydroxyphenyl)methylidene]-L-arginine], the mortality at 500 ppm in series [1] fell in the range of 50 to 69%.

Take `N=C(N)NCCC[C@H](/N=C/c1c(O)cccc1Cl)C(=O)O` [Example 4, (E)-N^2-[(6-chloro-2-hydroxyphenyl)methylidene]-L-arginine]: the mortality at 500 ppm in series [1] fell in the range of 50 to 69%.

With `N=C(N)NCCC[C@H](/N=C/c1cccc(F)c1O)C(=O)O` [Example 5, (E)-N^2-[(3-fluoro-2-hydroxyphenyl)methylidene]-L-arginine], the mortality at 500 ppm in series [1] was 70 to 100%.

On to `N=C(N)NCCC[C@H](/N=C/c1ccc(F)cc1O)C(=O)O` [Example 6, (E)-N^2-[(4-fluoro-2-hydroxyphenyl)methylidene]-L-arginine], for which the mortality at 500 ppm in series [1] was in the range of 70 to 100%.

With `N=C(N)NCCC[C@H](/N=C/c1cc(F)ccc1O)C(=O)O` [Example 7, (E)-N^2-[(5-fluoro-2-hydroxyphenyl)methylidene]-L-arginine], the mortality at 500 ppm in series [1] was in the range of 70 to 100%.

Regarding `N=C(N)NCCC[C@H](/N=C/c1c(O)cccc1F)C(=O)O` [Example 8, (E)-N^2-[(6-fluoro-2-hydroxyphenyl)methylidene]-L-arginine], the mortality at 500 ppm in series [1] lay in the range of 70 to 100%.

On to `COc1cccc(/C=N/[C@@H](CCCNC(=N)N)C(=O)O)c1O` [Example 9, (E)-N^2-[(2-hydroxy-3-methoxyphenyl)methylidene]L-arginine], for which, in series [1], the mortality at 500 ppm is 0 to 49%.

With `COc1ccc(O)c(/C=N/[C@@H](CCCNC(=N)N)C(=O)O)c1` [Example 10, (E)-N^2-[(2-hydroxy-5-methoxyphenyl)methylidene]-L-arginine], the mortality at 500 ppm in series [1] was in the range of 50 to 69%.

With `COc1cccc(O)c1/C=N/[C@@H](CCCNC(=N)N)C(=O)O` [Example 11, (E)-N^2-[(2-hydroxy-6-methoxyphenyl)methylidene]-L-arginine], in series [2], the “purity estimated by HPLC, Day 14, Condition 25° C. ± 2° C.” value was 99.00; the “purity estimated by HPLC, Day 14, Condition 54° C. ± 2° C.” value is reported as 98.85; the “purity estimated by HPLC, Day Zero, Condition 25° C. ± 2° C.” value was 99.10; the “purity estimated by HPLC, Day Zero, Condition 54° C. ± 2° C.” value was 99.20. Moreover, the mortality at 500 ppm in series [1] is 70 to 100%.

For the compound `Cc1cc(O)cc(O)c1/C=N/[C@@H](CCCNC(=N)N)C(=O)O` [Example 12, (E)-N^2-[(2,4-dihydroxy-6-methylphenyl)methylidene]-L-arginine], in series [1], the mortality at 500 ppm was 0 to 49%.

In the case of `COc1ccc(/C=N/[C@@H](CCCNC(=N)N)C(=O)O)c(OC)c1` [Example 13, (E)-N^2-[(2,4-dimethoxyphenyl)methylidene]-L-arginine], the mortality at 500 ppm in series [1] is 0 to 49%.

In the case of `N=C(N)NCCC[C@H](/N=C/c1cc(OC(F)(F)F)ccc1O)C(=O)O` [Example 14, (E)-N^2-{[2-hydroxy-5-(trifluoromethoxy)phenyl]methylidene}-L-arginine], the mortality at 500 ppm in series [1] fell in the range of 50 to 69%.

Regarding `N=C(N)NCCC[C@H](/N=C/c1cc(F)cc(Cl)c1O)C(=O)O` [Example 15, (E)-N^2-[(3-chloro-5-fluoro-2-hydroxyphenyl)methylidene]-L-arginine], in series [1], the mortality at 500 ppm fell in the range of 0 to 49%.

In the case of `COc1ccc(/C=N/[C@@H](CCCNC(=N)N)C(=O)O)cc1` [Example 16, (E)-N^2-[(4-methoxyphenyl)methylidene]-L-arginine], the mortality at 500 ppm in series [1] is 70 to 100%.

For the compound `COc1ccc(/C=N/[C@@H](CCCNC(=N)N)C(=O)O)cc1O` [Example 17, (E)-N^2-[(3-hydroxy-4-methoxyphenyl)methylidene]-L-arginine], the mortality at 500 ppm in series [1] is 0 to 49%.

For the compound `COc1ccc(/C=N/[C@@H](CCCNC(=N)N)C(=O)O)cc1Cl` [Example 18, (E)-N^2-[(3-chloro-4-methoxyphenyl)methylidene]-L-arginine], the mortality at 500 ppm in series [1] fell in the range of 50 to 69%.

With `CSc1ccc(/C=N/[C@@H](CCCNC(=N)N)C(=O)O)cc1` [Example 19, (E)-N^2-{[4-(methylsulfanyl)phenyl]methylidene}-L-arginine], in series [1], the mortality at 500 ppm was in the range of 50 to 69%.

For `C=CCc1cc(/C=N/[C@@H](CCCNC(=N)N)C(=O)O)c(O)c(OC)c1` [Example 20, (E)-N^2-{[2-hydroxy-3-methoxy-5-(prop-2-en-1-yl)phenyl]methylidene}-L-arginine], in series [1], the mortality at 500 ppm was in the range of 70 to 100%.

Consider `C=CCc1cc(/C=N/[C@@H](CCCNC(=N)N)C(=O)O)c(OC)c(OC)c1` [Example 21, (E)-N^2-{[2,3-dimethoxy-5-(prop-2-en-1-yl)phenyl]methylidene}-L-arginine], for which, in series [1], the mortality at 500 ppm was in the range of 70 to 100%.

As to `C=CCc1cccc(/C=N/[C@@H](CCCNC(=N)N)C(=O)O)c1O` [Example 22, (E)-N2-{[2-hydroxy-3-(prop-2-en-1-yl)phenyl]methylidene}-L-arginine], in series [2], the “purity estimated by HPLC, Day 14, Condition 25° C. ± 2° C.” value is 99.50; the “purity estimated by HPLC, Day 14, Condition 54° C. ± 2° C.” value is 99.30; the “purity estimated by HPLC, Day Zero, Condition 25° C. ± 2° C.” value was 99.60; the “purity estimated by HPLC, Day Zero, Condition 54° C. ± 2° C.” value was 99.63. Further, the mortality at 500 ppm in series [1] lay in the range of 70 to 100%.

As for `N=C(N)NCCC[C@H](/N=C/c1c[nH]c2ccccc12)C(=O)O` [Example 23, (E)-N^2-[(1H-indol-3-yl)methylidene]-L-arginine], the mortality at 500 ppm in series [1] was in the range of 50 to 69%.

For `N=C(N)NCCC[C@H](/N=C/c1ccc2c(c1)OCO2)C(=O)O` [Example 24, (E)-N^2-[(2H-1,3-benzodioxol-5-yl)methylidene]-L-arginine], in series [2], the “purity estimated by HPLC, Day 14, Condition 25° C. ± 2° C.” value is 98.80; the “purity estimated by HPLC, Day 14, Condition 54° C. ± 2° C.” value is 98.90; the “purity estimated by HPLC, Day Zero, Condition 25° C. ± 2° C.” value is 98.90; the “purity estimated by HPLC, Day Zero, Condition 54° C. ± 2° C.” value is 98.75. For the same compound, in series [1], the mortality at 500 ppm lay in the range of 50 to 69%.

As for `N=C(N)NCCC[C@H](/N=C/c1ccco1)C(=O)O` [Example 25, (E)-N^2-[(furan-2-yl)methylidene]-L-arginine], the mortality at 500 ppm in series [1] was in the range of 70 to 100%.

On to `Cc1ccc(/C=N/[C@@H](CCCNC(=N)N)C(=O)O)o1` [Example 26, (E)-N^2-[(5-methylfuran-2-yl)methylidene]-L-arginine], for which, in series [2], the “purity estimated by HPLC, Day 14, Condition 25° C. ± 2° C.” value is recorded as 99.10; the “purity estimated by HPLC, Day 14, Condition 54° C. ± 2° C.” value is 99.00; the “purity estimated by HPLC, Day Zero, Condition 25° C. ± 2° C.” value is recorded as 99.20; the “purity estimated by HPLC, Day Zero, Condition 54° C. ± 2° C.” value is given as 99.00. Also, in series [1], the mortality at 500 ppm was 70 to 100%.

On to `N=C(N)NCCC[C@H](/N=C/c1ccc(CO)o1)C(=O)O` [Example 27, (E)-N^2-{[5-(hydroxymethyl)furan-2-yl]methylidene}-L-arginine], for which the mortality at 500 ppm in series [1] was 50 to 69%.

As for `N=C(N)NCCC[C@H](/N=C/c1cccc2ccccc12)C(=O)O` [Example 28, (E)-N2-[(naphthalen-1-yl)methylidene]-L-arginine], the mortality at 500 ppm in series [1] fell in the range of 50 to 69%.

With `N=C(N)NCCC[C@H](/N=C/c1cccnc1)C(=O)O` [Example 29, (E)-N2-[(pyridin-3-yl)methylidene]-L-arginine], the mortality at 500 ppm in series [1] was 50 to 69%.

As to `N=C(N)NCCC[C@H](/N=C/c1ccc2ccccc2c1)C(=O)O` [Example 30, (E)-N2-[(naphthalen-2-yl)methylidene]-L-arginine], in series [2], the “purity estimated by HPLC, Day 14, Condition 25° C. ± 2° C.” value was 99.65; the “purity estimated by HPLC, Day 14, Condition 54° C. ± 2° C.” value was 99.45; the “purity estimated by HPLC, Day Zero, Condition 25° C. ± 2° C.” value is recorded as 99.70; the “purity estimated by HPLC, Day Zero, Condition 54° C. ± 2° C.” value was 99.65. Also, in series [1], the mortality at 500 ppm was 70 to 100%.

Take `N=C(N)NCCC[C@H](/N=C/c1ccsc1)C(=O)O` [Example 31, (E)-N2-[(thiophen-3-yl)methylidene]-L-arginine]: the mortality at 500 ppm in series [1] fell in the range of 50 to 69%.

`C=CCc1cccc(/C=N/[C@@H](CCCNC(=N)N)C(=O)O)c1OC` [Example 32, (E)-N2-{[2-methoxy-3-(prop-2-en-1-yl)phenyl]methylidene}-L-arginine]: the mortality at 500 ppm in series [1] fell in the range of 50 to 69%.

For `COc1cc(/C=N/[C@@H](CCCNC(=N)N)C(=O)O)cc2c1OCO2` [Example 33, (E)-N2-[(7-methoxy-2H-1,3-benzodioxol-5-yl)methylidene]-L-arginine], in series [1], the mortality at 500 ppm is 50 to 69%.

Turning to `N=C(N)NCCC[C@H](/N=C/c1cccc2c1OCO2)C(=O)O` [Example 34, (E)-N2-[(2H-1,3-benzodioxol-4-yl)methylidene]-L-arginine], in series [1], the mortality at 500 ppm lay in the range of 50 to 69%.
